Values after ≈ are worked out from the molar mass of the structure shown. Read-outs that look alike come from different tables or passages of the source.
Key:
[1] = Equilibrium solubility of drug substance in media with solubilizer (excess drug, rotated 48 hours at room temperature, filtered, HPLC); type: physicochemical; settings: for solubility enhancement ratio: vs vehicle alone; for solubility at 48 h: thermodynamic from solid
Method: An excess of drug substance was added to 20 ml glass liquid scintillation vials (Kimble Glass Inc., Vineland, N.J.) containing 10 ml of the media with a specific amount of solubilizer. […] The samples were filtered through a 0.45 μm filter (Acrodisc CR PTFE membrane filter, Gelman Sciences, Ann Arbor, Mich.). After discarding the first mL of the filtrates to eliminate any membrane adsorptive effect, the filtrates were collected for high-performance liquid chromatography (HPLC) analysis for drug concentration.

[2] = set by the WHO; cited from earlier work
[3] = water; cited from earlier work
[4] = Stability of crystalline methylated β-cyclodextrin against heat and humidity; type: physicochemical
[5] = Water solubility of the cyclodextrin itself; type: physicochemical; settings: room temperature
[6] = 2% (w/v) Cryst. Methylated β-CD, aqueous
[7] = 2% (w/v) HP-β-cyclodextrin, aqueous
[8] = 5% (w/v) Cryst. Methylated β-CD, aqueous
[9] = 5% (w/v) HP-β-cyclodextrin, aqueous
[10] = 10% (w/v) Cryst. Methylated β-CD, aqueous
[11] = 10% (w/v) HP-β-cyclodextrin, aqueous

For `NC(=O)N1c2ccccc2C=Cc2ccccc21` [Carbamazepine], the solubility enhancement ratio ([1]; 1% (w/v) β-Cyclodextrin, aqueous) was 5.9, the solubility at 48 h ([1]; 1% (w/v) β-cyclodextrin in water, aqueous with cosolvent or surfactant or cyclodextrin, 1% (w/v) β-Cyclodextrin, aqueous, read-out: Carbamazepine Solubility) was 669 µg/mL (≈ 2.83 mM) and the solubility at 48 h ([1]; 2% (w/v) Cavasol W7M in water, aqueous with cosolvent or surfactant or cyclodextrin, 2% (w/v) Cavasol W7M, aqueous, read-out: Carbamazepine Solubility) was 1070 µg/mL (≈ 4.52 mM). The solubility enhancement ratio ([1]; 2% (w/v) Cavasol W7M, aqueous) was 9.5, the solubility enhancement ratio [1, 6] was 13.7 and the solubility at 48 h ([1]; 2% (w/v) HP-β-cyclodextrin in water, aqueous with cosolvent or surfactant or cyclodextrin, 2% (w/v) HP-β-cyclodextrin, aqueous, read-out: Carbamazepine Solubility) was 1240 µg/mL (≈ 5.26 mM). For the same compound, the solubility enhancement ratio [1, 7] was 11.0, the solubility at 48 h ([1]; 2% (w/v) crystalline methylated β-cyclodextrin in water, aqueous with cosolvent or surfactant or cyclodextrin, 2% (w/v) Cryst. Methylated β-CD, aqueous, read-out: Carbamazepine Solubility) was 1540 µg/mL (≈ 6.53 mM) and the solubility enhancement ratio ([1]; 2% (w/v) β-Cyclodextrin, aqueous) was 10.5. It also gave a solubility at 48 h ([1]; 2% (w/v) β-cyclodextrin in water, aqueous with cosolvent or surfactant or cyclodextrin, 2% (w/v) β-Cyclodextrin, aqueous, read-out: Carbamazepine Solubility) of 1190 µg/mL (≈ 5.02 mM), a solubility at 48 h ([1]; 5% (w/v) Cavasol W7M in water, aqueous with cosolvent or surfactant or cyclodextrin, 5% (w/v) Cavasol W7M, aqueous, read-out: Carbamazepine Solubility) of 2580 µg/mL (≈ 10.9 mM) and a solubility enhancement ratio ([1]; 5% (w/v) Cavasol W7M, aqueous) of 22.8. The solubility enhancement ratio [1, 8] was 31.8, the solubility at 48 h ([1]; 5% (w/v) HP-β-cyclodextrin in water, aqueous with cosolvent or surfactant or cyclodextrin, 5% (w/v) HP-β-cyclodextrin, aqueous, read-out: Carbamazepine Solubility) was 2880 µg/mL (≈ 12.2 mM) and the solubility enhancement ratio [1, 9] was 25.4. It also gave a solubility at 48 h ([1]; 5% (w/v) crystalline methylated β-cyclodextrin in water, aqueous with cosolvent or surfactant or cyclodextrin, 5% (w/v) Cryst. Methylated β-CD, aqueous, read-out: Carbamazepine Solubility) of 3590 µg/mL (≈ 15.2 mM), a solubility at 48 h ([1]; 7.5% (w/v) Cavasol W7M in water, aqueous with cosolvent or surfactant or cyclodextrin, 7.5% (w/v) Cavasol W7M, aqueous, read-out: Carbamazepine Solubility) of 3760 µg/mL (≈ 15.9 mM) and a solubility enhancement ratio ([1]; 7.5% (w/v) Cavasol W7M, aqueous) of 33.3. For the same compound, the solubility enhancement ratio ([1]; 7.5% (w/v) Cryst. Methylated β-CD, aqueous) was 47.5, the solubility at 48 h ([1]; 7.5% (w/v) HP-β-cyclodextrin in water, aqueous with cosolvent or surfactant or cyclodextrin, 7.5% (w/v) HP-β-cyclodextrin, aqueous, read-out: Carbamazepine Solubility) was 4870 µg/mL (≈ 20.6 mM) and the solubility enhancement ratio ([1]; 7.5% (w/v) HP-β-cyclodextrin, aqueous) was 43.1. For the same compound, the solubility at 48 h ([1]; 7.5% (w/v) crystalline methylated β-cyclodextrin in water, aqueous with cosolvent or surfactant or cyclodextrin, 7.5% (w/v) Cryst. Methylated β-CD, aqueous, read-out: Carbamazepine Solubility) was 5370 µg/mL (≈ 22.7 mM), the solubility at 48 h ([1]; 10% (w/v) Cavasol W7M in water, aqueous with cosolvent or surfactant or cyclodextrin, 10% (w/v) Cavasol W7M, aqueous, read-out: Carbamazepine Solubility) was 5250 µg/mL (≈ 22.2 mM) and the solubility enhancement ratio ([1]; 10% (w/v) Cavasol W7M, aqueous) was 46.4. The solubility enhancement ratio [1, 10] was 61.6, the solubility at 48 h ([1]; 10% (w/v) HP-β-cyclodextrin in water, aqueous with cosolvent or surfactant or cyclodextrin, 10% (w/v) HP-β-cyclodextrin, aqueous, read-out: Carbamazepine Solubility) was 6020 µg/mL (≈ 25.5 mM) and the solubility enhancement ratio [1, 11] was 53.3. The solubility at 48 h ([1]; 10% (w/v) crystalline methylated β-cyclodextrin in water, aqueous with cosolvent or surfactant or cyclodextrin, 10% (w/v) Cryst. Methylated β-CD, aqueous, read-out: Carbamazepine Solubility) was 6960 µg/mL (≈ 29.5 mM), the solubility at 48 h ([1]; 20% (w/v) Cavasol W7M in water, aqueous with cosolvent or surfactant or cyclodextrin, 20% (w/v) Cavasol W7M, aqueous, read-out: Carbamazepine Solubility) was 10900 µg/mL (≈ 46.2 mM) and the solubility enhancement ratio ([1]; 20% (w/v) Cavasol W7M, aqueous) was 96.5. For the same compound, the solubility enhancement ratio ([1]; 20% (w/v) Cryst. Methylated β-CD, aqueous) was 132.4, the solubility at 48 h ([1]; 20% (w/v) HP-β-cyclodextrin in water, aqueous with cosolvent or surfactant or cyclodextrin, 20% (w/v) HP-β-cyclodextrin, aqueous, read-out: Carbamazepine Solubility) was 10700 µg/mL (≈ 45.3 mM) and the solubility enhancement ratio ([1]; 20% (w/v) HP-β-cyclodextrin, aqueous) was 94.8. It also gave a solubility at 48 h ([1]; 20% (w/v) crystalline methylated β-cyclodextrin in water, aqueous with cosolvent or surfactant or cyclodextrin, 20% (w/v) Cryst. Methylated β-CD, aqueous (heating to dissolve CD), read-out: Carbamazepine Solubility) of 15000 µg/mL (≈ 63.3 mM), a solubility at 48 h ([1]; PEG 400, organic solvent or mixture, vehicle: PEG 400, read-out: Carbamezepine Solubility) of 77900 µg/mL (≈ 330 mM) and a solubility at 48 h ([1]; Transcutol, organic solvent or mixture, vehicle: Transcutol, read-out: Carbamezepine Solubility) of 78100 µg/mL (≈ 331 mM). The “carbamazepine solubility in propylene glycol relative to aqueous solubility” value ([1]; propylene glycol vs water) was “about 310 fold”, the solubility at 48 h ([1]; propylene glycol, organic solvent or mixture, vehicle: Propylene Glycol, read-out: Carbamezepine Solubility) was 35300 µg/mL (≈ 150 mM) and the “Carbamazepine Solubility” value ([1]; water, 0% (w/v) cyclodextrin) was 113 µg/mL.

Compound `NC(=O)N1c2ccccc2CC(=O)c2ccccc21` [Oxcarbazepine] has a solubility at 48 h ([1]; 1% (w/v) Cavasol W7M, aqueous, aqueous with cosolvent or surfactant or cyclodextrin, 1% (w/v) Cavasol W7M, aqueous, read-out: Oxcarbazepine Solubility) of 150 µg/mL (≈ 0.595 mM), a solubility enhancement ratio ([1]; 1% (w/v) Cavasol W7M, aqueous) of 2.1 and a solubility at 48 h ([1]; 1% (w/v) Cryst. Methylated β-CD, aqueous, aqueous with cosolvent or surfactant or cyclodextrin, 1% (w/v) Cryst. Methylated β-CD, aqueous, read-out: Oxcarbazepine Solubility) of 230 µg/mL (≈ 0.912 mM). For the same compound, the solubility enhancement ratio ([1]; 1% (w/v) Cryst. Methylated β-CD, aqueous) was 3.3, the solubility at 48 h ([1]; 1% (w/v) HP-β-cyclodextrin, aqueous, aqueous with cosolvent or surfactant or cyclodextrin, 1% (w/v) HP-β-cyclodextrin, aqueous, read-out: Oxcarbazepine Solubility) was 130 µg/mL (≈ 0.515 mM) and the solubility enhancement ratio ([1]; 1% (w/v) HP-β-cyclodextrin, aqueous) was 1.9. For the same compound, the solubility at 48 h ([1]; 1% (w/v) Tween 80, aqueous, aqueous with cosolvent or surfactant or cyclodextrin, 1% (w/v) Tween 80, aqueous, read-out: Oxcarbazepine Solubility) was 120 µg/mL (≈ 0.476 mM), the solubility enhancement ratio ([1]; 1% (w/v) Tween 80, aqueous) was 1.7 and the solubility at 48 h ([1]; 2% (w/v) Cavasol W7M, aqueous, aqueous with cosolvent or surfactant or cyclodextrin, 2% (w/v) Cavasol W7M, aqueous, read-out: Oxcarbazepine Solubility) was 240 µg/mL (≈ 0.951 mM). For the same compound, the solubility enhancement ratio ([1]; 2% (w/v) Cavasol W7M, aqueous) was 3.4, the solubility at 48 h ([1]; 2% (w/v) Cryst. Methylated β-CD, aqueous, aqueous with cosolvent or surfactant or cyclodextrin, 2% (w/v) Cryst. Methylated β-CD, aqueous, read-out: Oxcarbazepine Solubility) was 310 µg/mL (≈ 1.23 mM) and the solubility enhancement ratio [1, 6] was 4.4. The solubility at 48 h ([1]; 2% (w/v) HP-β-cyclodextrin, aqueous, aqueous with cosolvent or surfactant or cyclodextrin, 2% (w/v) HP-β-cyclodextrin, aqueous, read-out: Oxcarbazepine Solubility) was 190 µg/mL (≈ 0.753 mM), the solubility enhancement ratio [1, 7] was 2.7 and the solubility at 48 h ([1]; 2% (w/v) Tween 80, aqueous, aqueous with cosolvent or surfactant or cyclodextrin, 2% (w/v) Tween 80, aqueous, read-out: Oxcarbazepine Solubility) was 170 µg/mL (≈ 0.674 mM). For the same compound, the solubility enhancement ratio ([1]; 2% (w/v) Tween 80, aqueous) was 2.4, the solubility enhancement ratio ([1]; 5% (w/v) Cavasol W7M, aqueous) was 7.0 and the solubility enhancement ratio [1, 8] was 11.7. For the same compound, the solubility enhancement ratio [1, 9] was 4.9, the solubility at 48 h ([1]; 5% (w/v) Tween 80, aqueous, aqueous with cosolvent or surfactant or cyclodextrin, 5% (w/v) Tween 80, aqueous, read-out: Oxcarbazepine Solubility) was 290 µg/mL (≈ 1.15 mM) and the solubility enhancement ratio ([1]; 5% (w/v) Tween 80, aqueous) was 4.1. For the same compound, the solubility enhancement ratio ([1]; 10% (w/v) Cavasol W7M, aqueous) was 9.6, the solubility enhancement ratio [1, 10] was 21.3 and the solubility enhancement ratio [1, 11] was 9.6. For the same compound, the solubility enhancement ratio ([1]; 10% (w/v) Tween 80, aqueous) was 7.1, the solubility at 48 h ([1]; aqueous media with solubilizer, aqueous with cosolvent or surfactant or cyclodextrin, 5% (w/v) Cavasol W7M, aqueous, read-out: Oxcarbazepine Solubility) was 490 µg/mL (≈ 1.94 mM) and the solubility at 48 h ([1]; aqueous media with solubilizer, aqueous with cosolvent or surfactant or cyclodextrin, 5% (w/v) Cryst. Methylated β-CD, aqueous, read-out: Oxcarbazepine Solubility) was 820 µg/mL (≈ 3.25 mM). The solubility at 48 h ([1]; aqueous media with solubilizer, aqueous with cosolvent or surfactant or cyclodextrin, 5% (w/v) HP-β-cyclodextrin, aqueous, read-out: Oxcarbazepine Solubility) was 340 µg/mL (≈ 1.35 mM), the solubility at 48 h ([1]; aqueous media with solubilizer, aqueous with cosolvent or surfactant or cyclodextrin, 10% (w/v) Cavasol W7M, aqueous, read-out: Oxcarbazepine Solubility) was 670 µg/mL (≈ 2.66 mM) and the solubility at 48 h ([1]; aqueous media with solubilizer, aqueous with cosolvent or surfactant or cyclodextrin, 10% (w/v) Cryst. Methylated β-CD, aqueous, read-out: Oxcarbazepine Solubility) was 1490 µg/mL (≈ 5.91 mM). For the same compound, the solubility at 48 h ([1]; aqueous media with solubilizer, aqueous with cosolvent or surfactant or cyclodextrin, 10% (w/v) HP-β-cyclodextrin, aqueous, read-out: Oxcarbazepine Solubility) was 670 µg/mL (≈ 2.66 mM), the solubility at 48 h ([1]; aqueous media with solubilizer, aqueous with cosolvent or surfactant or cyclodextrin, 10% (w/v) Tween 80, aqueous, read-out: Oxcarbazepine Solubility) was 500 µg/mL (≈ 1.98 mM) and the “Oxcarbazepine Solubility” value ([1]; water, 0% (w/v) solubilizer) was 70 µg/mL. The solubility at 48 h ([1]; water, water, 0% (w/v) solubilizer, read-out: Oxcarbazepine Solubility) was 70 µg/mL (≈ 0.277 mM).

For `CC(O)CO` (centres unmarked) [propylene glycol], the acceptable daily intake [2] is listed as “up to 25 mg/kg body weight”.

In the case of `OC[C@H]1O[C@@H]2O[C@H]3[C@H](O)[C@@H](O)[C@@H](O[C@H]4[C@H](O)[C@@H](O)[C@@H](O[C@H]5[C@H](O)[C@@H](O)[C@@H](O[C@H]6[C@H](O)[C@@H](O)[C@@H](O[C@H]7[C@H](O)[C@@H](O)[C@@H](O[C@H]8[C@H](O)[C@@H](O)[C@@H](O[C@H]1[C@H](O)[C@H]2O)O[C@@H]8CO)O[C@@H]7CO)O[C@@H]6CO)O[C@@H]5CO)O[C@@H]4CO)O[C@@H]3CO` [β-cyclodextrin], the aqueous solubility [3] is listed as 1.8 % w/v.

With crystalline methylated β-cyclodextrin the “stability against heat and humidity” value [4] was “stable against heat and humidity” and the water solubility [5] was “around 15%”.

Source: patent publication US7259153B2, “Drug formulation and delivery using crystalline methylated cyclodextrins” (Supernus Pharmaceuticals, priority 2003, dated 2007)
